In assay [1] the test system is BaF3 cells with engineered EGFR L858R/C797S. The assay can be described thus: 3-Day CellTiter Glo (CTG) cell proliferation assay, BaF3 EGFR L858R/C797S. The format is cell-based. As to conditions: Mus musculus, 3-day CTG proliferation, 72 hours. In a few lines:
(§1)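 Luminescent ATP read-out (CellTiter-Glo 2.0) after 72 h compound exposure gives IC50 values. BaF3 transgenic cells, one thousand per well, received a nine-dose series and were kept at 37 °C under 5% CO2.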
On the technique in general: ATP-based viability assays read luminescence as a measure of living cells.

In the next assay the target is EGFR (D746-750/C797S) (Homo sapiens, UniProt P00533, C797S/DEL746-750). The assay can be described thus: HotSpot radiometric kinase assay, inhibition of EGFR 746-750/C797S mutant. As to conditions: 33P ATP, room temperature, 120 m. Format: biochemical. The method, boiled down: (§2)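 Radiometric filter-binding format: ATP plus 33P-ATP ([…]) was added about 20 min after compound to kinase and substrate in HEPES pH 7.5 buffer with Mg2+, EGTA, Brij35, BSA, vanadate, DTT and 1% DMSO. After 120 min at room temperature, reactions were spotted on P81 paper and washed in phosphoric acid; IC50 values fitted.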
EGFR (D746-750/C797S), sequence (P00533 with tags, fused parts or gaps DEL746-750/C797S): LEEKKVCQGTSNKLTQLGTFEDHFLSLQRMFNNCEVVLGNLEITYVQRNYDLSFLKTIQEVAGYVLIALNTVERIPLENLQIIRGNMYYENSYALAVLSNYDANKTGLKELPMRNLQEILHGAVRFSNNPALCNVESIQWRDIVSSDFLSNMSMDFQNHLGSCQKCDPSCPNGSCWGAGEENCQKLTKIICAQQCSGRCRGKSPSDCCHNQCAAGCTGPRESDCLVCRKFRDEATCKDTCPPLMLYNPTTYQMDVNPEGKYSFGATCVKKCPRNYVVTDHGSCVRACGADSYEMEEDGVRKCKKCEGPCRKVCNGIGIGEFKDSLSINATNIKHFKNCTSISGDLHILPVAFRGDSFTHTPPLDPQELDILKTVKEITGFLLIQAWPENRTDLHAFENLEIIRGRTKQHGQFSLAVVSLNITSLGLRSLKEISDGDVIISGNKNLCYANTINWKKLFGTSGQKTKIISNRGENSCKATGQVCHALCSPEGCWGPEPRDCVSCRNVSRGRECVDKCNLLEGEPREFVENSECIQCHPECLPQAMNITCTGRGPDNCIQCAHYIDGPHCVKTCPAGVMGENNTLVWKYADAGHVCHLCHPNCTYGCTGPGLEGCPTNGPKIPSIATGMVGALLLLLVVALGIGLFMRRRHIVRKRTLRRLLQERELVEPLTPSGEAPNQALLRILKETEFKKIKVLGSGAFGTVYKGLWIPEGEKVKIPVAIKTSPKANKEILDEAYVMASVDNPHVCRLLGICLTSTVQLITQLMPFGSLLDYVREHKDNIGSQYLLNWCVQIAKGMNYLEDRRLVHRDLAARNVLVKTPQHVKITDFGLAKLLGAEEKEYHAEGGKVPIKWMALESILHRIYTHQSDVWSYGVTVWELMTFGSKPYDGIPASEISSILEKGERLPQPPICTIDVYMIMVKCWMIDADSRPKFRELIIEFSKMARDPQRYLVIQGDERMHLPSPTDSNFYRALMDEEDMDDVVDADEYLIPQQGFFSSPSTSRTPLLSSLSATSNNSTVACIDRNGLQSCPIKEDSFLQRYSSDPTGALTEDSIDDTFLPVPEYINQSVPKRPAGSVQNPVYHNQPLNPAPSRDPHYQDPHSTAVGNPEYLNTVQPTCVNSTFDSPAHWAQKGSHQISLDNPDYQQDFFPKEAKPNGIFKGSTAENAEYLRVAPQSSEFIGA

Assay [2] addresses T1, pEGFR, NCI-H1975 cells (L858R/T790M EGFR) (Homo sapiens, UniProt P00533, L858R/T790M).
T1 construct: pEGFR (Tyr1068) TR-FRET
The assay can be described thus: Cellular EGFR phosphorylation assay (LANCE Ultra TR-FRET) in NCI-H1975 cells. Conditions: 4 hours at 37° C., read-out: H1975 pEGFR IC50. The format is cell-based. The method, boiled down: (§3)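 IC50 values come from TR-FRET detection of EGFR phosphorylated at Tyr1068 in whole-cell lysates. Compound exposure lasts 4 h at 37 °C across nine 3-fold concentrations, and the wildtype-amplified A431 line receives 40 ng/mL EGF during the last 10 minutes.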
For orientation: In TR-FRET formats the signal depends on donor and acceptor labels being close together.

In assay [3] the test system is BaF3 cells with engineered EGFR L858R/T790M/C797S. Description: 3-Day CellTiter Glo (CTG) cell proliferation assay, BaF3 EGFR L858R/T790M/C797S. The format is cell-based. As to conditions: Mus musculus, 3-day CTG proliferation, 72 hours. In a few lines:
as §1

In assay [4] the test system is BaF3 cells with engineered EGFR d746-750/T790M. Description: 3-Day CellTiter Glo (CTG) cell proliferation assay, BaF3 EGFR d746-750/T790M. The format is cell-based. Conditions: Mus musculus; BaF3 EGFR d746-750/T790M cells, 3-day CTG proliferation, 72 hours. In a few lines:
as §1

Assay [5] deals with T2, pEGFR, A431 cells (wildtype EGFR) (Homo sapiens, UniProt P00533).
T2 construct: pEGFR (Tyr1068) TR-FRET
The assay can be described thus: Cellular EGFR phosphorylation assay (LANCE Ultra TR-FRET) in A431 cells. The format is cell-based. Conditions: 4 hours at 37° C., 40 ng/mL EGF for the final 10 minutes, read-out: A431 pEGFR IC50. In a few lines:
as §3

Another assay has as its target EGFR (D770_N771insNPG) (Homo sapiens, UniProt P00533, INS770NPG). Description: HotSpot radiometric kinase assay, inhibition of EGFR (D770_N771insNPG) mutant. Format: biochemical. Conditions: 33P ATP, room temperature, 120 m. The method, boiled down:
as §2

The next assay addresses EGFR (L858R/T790M/C797S) (Homo sapiens, UniProt P00533, C797S/L858R/T790M). Description: HotSpot radiometric kinase assay, inhibition of EGFR L858R/T790M/C797S mutant. Format: biochemical. Conditions: 33P ATP, room temperature, 120 m. The method, boiled down: as §2
For the next assay, the target named is EGFR (D746-750) (Homo sapiens, UniProt P00533, DEL746-750). Description: HotSpot radiometric kinase assay, inhibition of EGFR 746-750 mutant. The format is biochemical. Conditions: 33P ATP, room temperature, 120 m. In a few lines: as §2
Assay [6] concerns the target T3, pEGFR, PC-9 cells (d746-750 EGFR) (Homo sapiens, UniProt P00533, DEL746-750).
T3 construct: pEGFR (Tyr1068) TR-FRET
Description: Cellular EGFR phosphorylation assay (LANCE Ultra TR-FRET) in PC-9 cells. Conditions: 4 hours at 37° C., read-out: PC-9 pEGFR IC50. The format is cell-based. In a few lines:
as §3

Another assay deals with NCI-H1975 cells. Description: 5-Day CellTiter Glo (CTG) cell proliferation assay, NCI-H1975. Conditions: Homo sapiens; NCI-H1975 cells (L858R/T790M EGFR), 5-day CTG proliferation, 120 hours; read-out: H1975 IC50. The format is cell-based. In a few lines: (§4)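 Proliferation of EGFR-driven NSCLC cells was scored as CellTiter-Glo 2.0 luminescence after a 5-day (120 h) incubation with compounds in 9 doses. IC50 values came from the dose-response curves.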

For a further assay, the system named is PC-9 cells. Description: 5-Day CellTiter Glo (CTG) cell proliferation assay, PC-9. Format: cell-based. As to conditions: Homo sapiens; PC-9 cells (d746-750 EGFR), 5-day CTG proliferation, 120 hours; read-out: PC-9 IC50. In a few lines:
as §4

The next assay relates to HCC827 cells. The assay can be described thus: 5-Day CellTiter Glo (CTG) cell proliferation assay, HCC827. Format: cell-based. As to conditions: Homo sapiens; HCC827 cells (d746-750 EGFR), 5-day CTG proliferation, 120 hours; read-out: HCC827 IC50. In a few lines: as §4

Each structure is given as a SMILES string. pIC50: −log10 of the molar value.

These results are taken from US20260317344A1, “EGFR INHIBITORS FOR TREATING DISEASE” (BLOSSOMHILL THERAPEUTICS, INC., priority 2023, published 2026).

EGFR (L858R/T790M/C797S), sequence (P00533 25-1210 T790M/C797S/L858R): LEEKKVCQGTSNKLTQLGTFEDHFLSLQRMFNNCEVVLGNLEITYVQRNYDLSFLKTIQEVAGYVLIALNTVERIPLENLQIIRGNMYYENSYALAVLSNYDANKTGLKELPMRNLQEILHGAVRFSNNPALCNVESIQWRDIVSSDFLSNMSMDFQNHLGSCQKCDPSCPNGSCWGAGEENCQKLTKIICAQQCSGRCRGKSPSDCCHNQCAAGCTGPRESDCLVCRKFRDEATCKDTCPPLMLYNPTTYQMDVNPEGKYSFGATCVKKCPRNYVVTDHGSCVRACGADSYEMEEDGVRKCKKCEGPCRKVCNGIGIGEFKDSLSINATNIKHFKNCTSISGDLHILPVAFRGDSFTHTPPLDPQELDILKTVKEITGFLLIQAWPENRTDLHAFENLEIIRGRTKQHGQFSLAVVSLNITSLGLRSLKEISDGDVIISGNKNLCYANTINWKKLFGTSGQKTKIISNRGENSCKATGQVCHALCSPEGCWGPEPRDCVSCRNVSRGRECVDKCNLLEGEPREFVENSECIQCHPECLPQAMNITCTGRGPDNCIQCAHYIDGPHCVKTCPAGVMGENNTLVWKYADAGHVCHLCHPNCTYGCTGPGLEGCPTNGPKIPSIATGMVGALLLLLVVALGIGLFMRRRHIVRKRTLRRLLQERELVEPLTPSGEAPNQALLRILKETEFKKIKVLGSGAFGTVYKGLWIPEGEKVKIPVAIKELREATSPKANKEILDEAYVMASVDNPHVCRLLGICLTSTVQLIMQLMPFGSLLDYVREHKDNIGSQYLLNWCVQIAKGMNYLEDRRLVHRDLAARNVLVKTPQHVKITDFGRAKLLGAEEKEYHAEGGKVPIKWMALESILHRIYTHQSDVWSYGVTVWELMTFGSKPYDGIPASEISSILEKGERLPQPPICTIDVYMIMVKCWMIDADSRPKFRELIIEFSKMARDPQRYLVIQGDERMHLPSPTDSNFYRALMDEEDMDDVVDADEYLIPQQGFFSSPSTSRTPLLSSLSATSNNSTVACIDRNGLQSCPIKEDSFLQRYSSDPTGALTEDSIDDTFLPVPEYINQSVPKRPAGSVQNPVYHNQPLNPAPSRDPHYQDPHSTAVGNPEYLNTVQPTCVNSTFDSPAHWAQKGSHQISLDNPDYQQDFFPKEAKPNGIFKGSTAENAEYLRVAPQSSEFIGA
EGFR (D770_N771insNPG), sequence (P00533 with tags, fused parts or gaps INS770NPG limits assumed): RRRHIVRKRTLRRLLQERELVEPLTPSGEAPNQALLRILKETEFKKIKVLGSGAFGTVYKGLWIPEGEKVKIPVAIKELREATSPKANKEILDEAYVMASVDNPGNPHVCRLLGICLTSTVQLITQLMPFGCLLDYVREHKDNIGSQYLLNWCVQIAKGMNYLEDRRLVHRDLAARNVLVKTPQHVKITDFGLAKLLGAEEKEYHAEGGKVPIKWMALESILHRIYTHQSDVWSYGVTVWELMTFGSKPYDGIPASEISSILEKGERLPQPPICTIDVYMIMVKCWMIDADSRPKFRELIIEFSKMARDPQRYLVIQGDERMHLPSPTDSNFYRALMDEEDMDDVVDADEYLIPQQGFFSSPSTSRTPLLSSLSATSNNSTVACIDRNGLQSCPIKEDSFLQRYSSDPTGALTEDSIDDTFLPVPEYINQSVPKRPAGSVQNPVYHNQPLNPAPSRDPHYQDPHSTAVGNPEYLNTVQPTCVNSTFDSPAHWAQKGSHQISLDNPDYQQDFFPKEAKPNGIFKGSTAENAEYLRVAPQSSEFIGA
T1 sequence (P00533 25-1210 T790M/L858R): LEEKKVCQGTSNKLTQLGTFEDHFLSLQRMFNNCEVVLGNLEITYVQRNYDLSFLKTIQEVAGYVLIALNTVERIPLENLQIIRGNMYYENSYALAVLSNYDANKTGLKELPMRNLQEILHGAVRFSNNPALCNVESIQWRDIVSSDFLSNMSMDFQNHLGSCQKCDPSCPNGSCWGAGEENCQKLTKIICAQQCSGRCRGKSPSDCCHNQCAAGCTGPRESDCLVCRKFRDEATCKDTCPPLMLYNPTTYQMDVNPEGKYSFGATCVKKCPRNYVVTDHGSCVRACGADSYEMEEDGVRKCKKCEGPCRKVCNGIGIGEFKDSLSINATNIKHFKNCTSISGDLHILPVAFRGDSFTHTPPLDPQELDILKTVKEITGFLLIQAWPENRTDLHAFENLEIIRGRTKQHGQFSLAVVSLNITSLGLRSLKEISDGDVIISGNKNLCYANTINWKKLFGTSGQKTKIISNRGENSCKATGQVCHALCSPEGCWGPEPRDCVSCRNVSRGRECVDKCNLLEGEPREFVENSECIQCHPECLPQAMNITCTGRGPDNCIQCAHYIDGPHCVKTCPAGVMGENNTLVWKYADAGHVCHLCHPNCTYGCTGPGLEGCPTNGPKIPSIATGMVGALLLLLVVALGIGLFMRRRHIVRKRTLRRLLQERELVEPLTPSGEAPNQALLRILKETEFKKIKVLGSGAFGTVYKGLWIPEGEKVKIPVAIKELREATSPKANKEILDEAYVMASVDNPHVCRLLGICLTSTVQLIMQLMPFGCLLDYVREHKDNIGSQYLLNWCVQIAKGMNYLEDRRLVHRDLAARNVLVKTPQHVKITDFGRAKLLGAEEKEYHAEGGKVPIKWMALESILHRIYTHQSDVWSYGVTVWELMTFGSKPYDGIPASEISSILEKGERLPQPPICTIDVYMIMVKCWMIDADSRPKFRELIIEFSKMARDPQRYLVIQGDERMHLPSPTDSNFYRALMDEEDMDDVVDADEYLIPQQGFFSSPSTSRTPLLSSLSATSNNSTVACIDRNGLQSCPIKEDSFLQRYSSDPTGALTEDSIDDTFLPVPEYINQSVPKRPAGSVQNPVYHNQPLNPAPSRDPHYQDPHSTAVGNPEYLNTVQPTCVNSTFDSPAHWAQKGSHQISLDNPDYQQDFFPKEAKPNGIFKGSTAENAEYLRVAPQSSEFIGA

On to `Cc1nc2cc3c(n[nH]c13)/C=C/c1c(OC(C)C)nn(CCO)c1CN(C)C[C@H](C)Oc1c-2cnn1C` [Ex. 40, 2-[(10S,17E)-8,10,12,20-tetramethyl-16-[(propan-2-yl)oxy]-2,8,10,11,12,13-hexahydro-14H-5,3-(azenometheno)tripyrazolo[3,4-f:3′,4′-j:4″,3″-n][1,4]oxazacyclopentadecin-14-yl]ethan-1-ol], for which the pIC50 (usually −log10 of the IC50, conventionally taken in molar units) in assay [1] is 9.55; on EGFR (D746-750/C797S) it was 9.01; in assay [2] it was 8.80; in [3], 9.04; in assay [4], 8.48; in [5] it was 7.83. The pIC50 at EGFR (D770_N771insNPG) is 8.79; against EGFR (L858R/T790M/C797S) it was 9.35; at EGFR (D746-750) it was 9.46; in assay [6] it was 7.94.
Regarding `CCOc1nn(CCO)c2c1/C=C/c1n[nH]c3cnc(cc13)-c1c(C)nn(C)c1OC[C@H](C)N(C(C)C)C2` [Ex. 2, 2-[(11S,17E)-16-ethoxy-6,8,11-trimethyl-12-(propan-2-yl)-2,8,10,11,12,13-hexahydro-14H-5,3-(azenometheno)tripyrazolo[3,4-f:3′,4′-j:4″,3″-n][1,4]oxazacyclopentadecin-14-yl]ethan-1-ol], the negative-log IC50 (pIC50) in [1] was 9.89; at EGFR (D746-750/C797S), 9.20; in assay [2] it was 8.87; in the assay on NCI-H1975 cells it was 8.05; in assay [3], 9.05; in [4], 9.15. Also, the pIC50 in assay [5] is 8.03; on EGFR (D770_N771insNPG), 9.15; against EGFR (L858R/T790M/C797S) it was 9.10; against EGFR (D746-750) it was 9.66; in the assay on PC-9 cells, 8.74; with HCC827 cells, 9.41. Moreover, the pIC50 in assay [6] was 8.87.
As to `CCOc1nn([C@@H](C)CO)c2c1/C=C/c1n[nH]c3cnc(cc13)-c1c(C)nn(C)c1OCCN(C)C2` [Ex. 59, (2S)-2-[(17E)-16-ethoxy-6,8,12-trimethyl-2,8,10,11,12,13-hexahydro-14H-5,3-(azenometheno)tripyrazolo[3,4-f:3′,4′-j:4″,3″-n][1,4]oxazacyclopentadecin-14-yl]propan-1-ol], the pIC50 in assay [1] was 9.74; at EGFR (D746-750/C797S) it was 8.88; in assay [2], 8.84; in the assay on NCI-H1975 cells, 7.80; in assay [3], 9.04; in [4], 8.44. The pIC50 in assay [5] is 8.28; on EGFR (D770_N771insNPG), 8.95; at EGFR (L858R/T790M/C797S), 9.00; against EGFR (D746-750), 9.43; in the assay on PC-9 cells it was 8.49; in the assay with HCC827 cells, 9.03. Also, in [6], the pIC50 was 8.71.
`CCOc1nn(CCO)c2c1/C=C/c1n[nH]c3cnc(cc13)-c1c(C)nn(C)c1O[C@H](C)[C@H]1CCCN1C2` [Ex. 33, 2-[(8aR,9R,19E)-1-ethoxy-9,11,13-trimethyl-7,8,8a,9,11,17-hexahydro-6H-14,16-(azenometheno)tripyrazolo[3,4-f:3′,4′-j:4″,3″-n]pyrrolo[2,1-c][1,4]oxazacyclopentadecin-3(4H)-yl]ethan-1-ol]: the negative logarithm of the IC50 (pIC50) in [1] was 9.96; on EGFR (D746-750/C797S), 9.18; in [2], 8.62; in the assay with NCI-H1975 cells, 8.96; in [3] it was 8.80; in [4] it was 8.97. Besides, the pIC50 in [5] was 7.75; against EGFR (D770_N771insNPG), 9.77; at EGFR (L858R/T790M/C797S), 9.51; against EGFR (D746-750), 9.82; in the assay with PC-9 cells, 9.24; in the assay with HCC827 cells, 9.36. The pIC50 in assay [6] is 8.82.
For `CCOc1nn(CCO)c2c1/C=C/c1n[nH]c3cnc(cc13)-c1c(CC)nn(C)c1O[C@@H](C)CN(CC)C2` [Ex. 74, 2-[(10S,17E)-16-ethoxy-6,12-diethyl-8,10-dimethyl-2,8,10,11,12,13-hexahydro-14H-5,3-(azenometheno)tripyrazolo[3,4-f:3′,4′-j:4″,3″-n][1,4]oxazacyclopentadecin-14-yl]ethan-1-ol], the pIC50 in assay [1] is 10.40; against EGFR (D746-750/C797S), 8.74; in assay [2], 8.29; in the assay on NCI-H1975 cells, 7.10; in assay [3] it was 8.87; in [4], 8.18. The pIC50 was 8.06 in assay [5]; 9.18 against EGFR (D770_N771insNPG); 8.82 against EGFR (L858R/T790M/C797S); 9.26 against EGFR (D746-750); 9.17 in the assay on PC-9 cells; 9.14 with HCC827 cells. In assay [6], the pIC50 is 8.81.
On to `Cc1nn(CCO)c2c1/C=C/c1n[nH]c3cnc(cc13)-c1c(C)nn(C)c1O[C@@H](C)CN(C)C2` [Ex. 41, 2-[(10S,17E)-6,8,10,12,16-pentamethyl-2,8,10,11,12,13-hexahydro-14H-5,3-(azenometheno)tripyrazolo[3,4-f:3′,4′-j:4″,3″-n][1,4]oxazacyclopentadecin-14-yl]ethan-1-ol], for which the pIC50 in assay [1] was 9.80; against EGFR (D746-750/C797S), 9.64; in [3], 8.43; in assay [4] it was 7.86; against EGFR (D770_N771insNPG), 10.10; at EGFR (L858R/T790M/C797S) it was 9.64. For the same compound, the pIC50 on EGFR (D746-750) was 10.10.
For `CCN1Cc2c(c(OCC#N)nn2CCO)/C=C/c2n[nH]c3cnc(cc23)-c2c(C)nn(C)c2O[C@H](C)C1` [Ex. 36, {[(10R,17E)-12-ethyl-14-(2-hydroxyethyl)-6,8,10-trimethyl-2,10,11,12,13,14-hexahydro-8H-5,3-(azenometheno)tripyrazolo[3,4-f:3′,4′-j:4″,3″-n][1,4]oxazacyclopentadecin-16-yl]oxy}acetonitrile], the pIC50 in [1] was 9.33; against EGFR (D746-750/C797S), 9.54; in assay [3] it was 8.71; in assay [4], 8.67; at EGFR (D770_N771insNPG) it was 9.85; against EGFR (L858R/T790M/C797S), 9.89. In addition, the pIC50 against EGFR (D746-750) was 10.00.
With `CNc1nn([C@@H](C)CO)c2c1/C=C/c1n[nH]c3c(C)nc(cc13)-c1c(C)nn(C)c1O[C@@H](C)CN(C)C2` [Ex. 101, (2S)-2-[(10S,17E)-6,8,10,12,20-pentamethyl-16-(methylamino)-2,8,10,11,12,13-hexahydro-14H-5,3-(azenometheno)tripyrazolo[3,4-f:3′,4′-j:4″,3″-n][1,4]oxazacyclopentadecin-14-yl]propan-1-ol], the pIC50 in [1] is 9.70; in assay [2], 8.57; in the assay with NCI-H1975 cells, 8.44; in [3] it was 8.86; in [4], 8.36; in assay [5], 7.46. Besides, the pIC50 was 8.05 in the assay with PC-9 cells, 8.98 in the assay on HCC827 cells and 8.38 in [6].
For `CCOc1nn([C@@H](C)CO)c2c1/C=C/c1n[nH]c3c(C)nc(cc13)-c1c(C)nn(C)c1O[C@@H](C)CNC2` [Ex. 91, (2S)-2-[(10S,17E)-16-ethoxy-6,8,10,20-tetramethyl-2,8,10,11,12,13-hexahydro-14H-5,3-(azenometheno)tripyrazolo[3,4-f:3′,4′-j:4″,3″-n][1,4]oxazacyclopentadecin-14-yl]propan-1-ol], the pIC50 is 8.03 in assay [1]; 7.67 in assay [2]; 7.24 with NCI-H1975 cells; 7.76 in [3]; 7.34 in assay [4]; 7.46 in assay [5]. In addition, the pIC50 in the assay with PC-9 cells was 7.20; with HCC827 cells, 7.77; in assay [6], 7.16.
